# Laboratory results: patent US12403132B2, “Methods of treating bone marrow failure syndromes and compositions for use in the same” (The Board of Trustees of the Leland Stanford Junior …, priority 2020, dated 2025)
# System: NLK
# Experiment: NLK expression in differentiating human progenitors (qRT-PCR, Western blot)
# Assay type: cell-based
# Parameters: reduction of NLK protein expression / NLK expression, % of control: concentration or dose not given beside the values
# Details: for NLK expression, % of control: miRNAs or drugs, single and combined; for reduction of NLK protein expression: metformin
# Procedure: FIG. 10. Metformin improves erythropoiesis through suppression of NLK expression. (Panel A) Control (shLuc—grey columns) or RPS19-insufficient (shRPS19-—black columns) progenitors were differentiated in erythroid media alone, vehicle or vehicle containing 50 mM metformin or 5 uM SD208 for 5 days. 5000 cells per treatment were lysed and immunopurified NLK was subjected to in vitro kinase assay to determine phosphorylation potential against 3 recognized NLK substrates; NLK itself (upper), c-Myb (middle) or raptor (bottom). (Panel B) Simultaneously, qRT-PCR was performed to examine NLK (upper) and RPS19 (lower) mRNA expression. (Panel C) Active NLK was purified from activated Kp53A1 cells and subjected to in vitro kinase assay in the presence of 0, 50 nM, 50 μM, or 50 mM metformin or SD208. The phosphorylation of NLK (upper), c-Myb (middle) and raptor (lower) was determined after 30 mins. (Panel D) CD34+ progenitors were transduced with a combination of either shRNA against luciferase (shLuc—grey columns) or RPS19 (shRPS19—black columns) and siRNA against a non-targeting sequence (NT) or NLK (siNLK). After 14 days differentiation in the presence or absence of metformin, cells were counted and the percentage of cells with surface expression of CD235 and CD11b were determined by flow cytometry, to yield the number of CD235+ erythroid (upper) and CD11b+ myeloid (lower) cells. The total number of cells is expressed as a percentage of the number of each cell type in the control (untreated/shLuc/NT). […] Statistics: two-tailed Student's t test, significant *P<0.05
# RNA was extracted by using total RNA mini kit (Bio-Rad). RNA was transcribed into cDNA by using the iScript cDNA Synthesis Kit (Bio-Rad). The quantitative RT-PCR (qRT-PCR) reaction was run with iQ SYBR Green MasterMix (Bio-Rad) using the CFX384 Touch Real-Time PCR Detection System (Bio-Rad). 7SL small cytoplasmic RNA14 was used as an internal control. miRNA was quantified using TaqMan® Small RNA Assays (Applied Biosystems) as per manufacturer's directions and normalized to snoRNA. Fold change of mRNA and miRNA was calculated by using the comparative Ct method.
# Antibodies against RPS19 (#AB40833; Abcam; 1:200 dilution), NLK (#AB97642; Abcam; 1:1000 dilution) c-Myb (#12319; Cell Signaling; 1;1000 dilution), raptor (#AB26264; Abcam 1;1000 dilution), phosphor-Serine (#525280; Calbiochem; 1:1000 dilution), S6K (#9202; Cell Signaling; 1:500 dilution), and 4E-BP1 (#9452; Cell Signaling; 1:500 dilution), and GAPDH (#MAB374; Millipore; 1:10000) were used according to manufacturer's instructions. The target proteins were analyzed by using SuperSignal® West Pico Chemiluminescent Substrate for horseradish peroxidase (Thermo Scientific). Densitometry was performed using Image J software (http://rsb.info.nih.gov/ij/). When indicated, proteins were co-immunoprecipitated prior to immunoblotting. Cell lysates were normalized for protein before preclearing with Protein A/G Agarose (Upstate) for 30 min, before incubating with indicated antibody overnight. Immune complexes were precipitated with Protein A/G Agarose and separated by SDS-PAGE, before being subjected to immunoblotting.
# NLK kinase activity was performed as published (5). For Western blotting, antibodies against NLK (#AB97642; Abcam; 1:1000 dilution) and GAPDH (#MAB374; Millipore; 1:10000) were used according to manufacturer's instructions.
# MessengerRNA was quantified as described (5). MicroRNA was quantified using TaqMan® Small RNA Assays (Applied Biosystems) as per manufacturer's directions and normalized to snoRNA.
SMILES,influence on NLK expression (5 uM SD208),"reduction of NLK mRNA expression (RPS19-insufficiency, 50 mM)","reduction of NLK mRNA expression (control, 50 mM)","reduction of NLK protein (differentiating HSPCs, 50 mM)","NLK expression, % of control",NLK expression (RPS19-insufficient and control cells),reduction of NLK protein expression (RPS19-insufficient cultures),reduction of NLK protein expression (control cultures)
Fc1ccc(Cl)cc1-c1nc(Nc2ccncc2)c2nccnc2n1 [SD208],did not significantly influence,–,–,–,–,–,–,–
CC(C)=CCC[C@](C)(O[C@@H]1O[C@H](CO[C@@H]2O[C@H](CO)[C@@H](O)[C@H](O)[C@H]2O)[C@@H](O)[C@H](O)[C@H]1O)[C@H]1CC[C@]2(C)[C@@H]1[C@H](O)C[C@@H]1[C@@]3(C)CC[C@H](O[C@@H]4O[C@H](CO)[C@@H](O)[C@H](O)[C@H]4O[C@@H]4O[C@H](CO)[C@@H](O)[C@H](O)[C@H]4O)C(C)(C)[C@@H]3CC[C@]12C [ginsenoside Rb1],–,43.2%,43.8%,46.4%,65.4%,–,–,–
CN(C)C(=N)N=C(N)N [metformin],–,–,–,–,40.6%,similarly suppressed,65.4%,62.6%
